From article PMC13629022 (ACS Omega, 2026)
“Also recorded” adds a separate entry of the source. Read-outs that look alike come from different tables or passages of the source.

What was measured:
[1] = tested on: IL-1β production by stimulated J774.A1 macrophages; assay: IL-1β production by LPS + IFN-γ stimulated J774.A1 macrophages (ELISA); type: cell-based, murine; conditions: compounds at 62.5 μM, Dexa 40 μM, 24 h, vs stimulated untreated cells, p < 0.05
Protocol: (§1) Cells were then stimulated with LPS (500 ng/mL) and IFN-γ (5 ng/mL) in the presence of either the test compounds at different concentrations (3.9–250 μM), the medium alone, or dexamethasone (40 μM, reference drug) and further incubated at 37 °C. Cell-free supernatants were collected 24 h after incubation for IL-1β, IL-6, and nitrite quantification. Cytokine concentrations in the supernatants of J774.A1 cultures were determined by enzyme-linked immunosorbent assay (ELISA) using the DuoSet kit (R&D Systems, Minneapolis, MN, USA), according to the manufacturer’s instructions. Results were expressed as picograms per milliliter (pg/mL) of IL-1β or IL-6. Quantification of nitrite as an indicator of nitric oxide production was performed using the Griess method. Three independent experiments were performed. −

[2] = tested on: murine macrophage-like J774.A1 cells; assay: Cytotoxicity to J774.A1 macrophages (Alamar Blue); conditions: concentrations up to 500 μM (compounds 7 and 13 up to 250 μM)
Protocol: Cells were incubated for 72 h at 37 °C in a 5% CO2 atmosphere, as previously described. They were then stimulated with LPS (500 ng/mL, Sigma Chemical Co., St. Louis, MO, USA) and IFN-γ (5 ng/mL, Sigma). Compounds were added to the medium at eight concentrations ranging from 1.9 to 500 μM, in triplicate, and incubated for 24 h. Subsequently, 20 μL per well of Alamar Blue (Invitrogen, Carlsbad, CA, USA) was added to the plates for 6 h. Compounds 7, 11, and 13 were evaluated only up to a maximum concentration of 250 μM due to the limited amount of purified material available for testing. Colorimetric readings were performed at 570 and 600 nm. Triton X-100 (5%) was used as the positive control.

[3] = tested on: nitric oxide production by stimulated J774.A1 macrophages; assay: Nitric oxide production by LPS + IFN-γ stimulated J774.A1 macrophages (nitrite, Griess method); type: cell-based, murine; conditions: Mus musculus
Protocol: as §1, with “For cytokine and nitric oxide evaluations, J774.A1 cells were seeded in 96-well tissue culture plates at 2 × 10^5 cells per well in DMEM supplemented with 10% FBS and 50 μg/mL gentamicin and incubated for 2 h at 37 °C in a 5% CO2 atmosphere, as previously described. Cells” for “Cells”

[4] = tested on: IL-6 production by stimulated J774.A1 macrophages; assay: IL-6 production by LPS + IFN-γ stimulated J774.A1 macrophages (ELISA); type: cell-based, murine; conditions: compounds at 62.5 μM, Dexa 40 μM, 24 h, vs stimulated untreated cells, p < 0.05
Protocol: as §1

[5] = J774.A1, 24 h, read-out: IC50, half maximal inhibitory concentration, NO production, J774.A1 macrophages stimulated with LPS (500 ng/mL) + IFN-γ (5 ng/mL), 24 h, nitrite by Griess
[6] = J774.A1, 24 h, read-out: efficacy: maximum effect (% of the maximum possible effect), inhibition of NO production, J774.A1 macrophages stimulated with LPS + IFN-γ, 24 h
[7] = J774.A1, read-out: IC50 (in Figure 8 panels), nitric oxide production, Figure 8, no unit in the boxes, μM only in axis labels, LPS + IFN-γ stimulated J774.A1

Row | IC50 ([3]; J774.A1, 24 h, J774.A1 macrophages stimulated with LPS (500 ng/mL) + IFN-γ (5 ng/mL), 24 h, nitrite by Griess, read-out: IC50, half maximal inhibitory concentration, NO production) [µM] | SMILES | production of IL-1β (in words) [1] | cytotoxic effects in J774 macrophages (in words) [2] | IC50 [3, 5] [µM] | Emax [3, 6] [%] | IC50 [3, 7] [µM] | production of IL-6 (in words) [4] | Emax ([3]; J774.A1, 24 h, J774.A1 macrophages stimulated with LPS + IFN-γ, 24 h, read-out: efficacy: maximum effect (% of the maximum possible effect), inhibition of NO production) [%]
1 | – | COC1CC(OC2CCC3(C)C(=CCC4(O)C3CC(OC(=O)C=Cc3ccccc3)C3(C)C(C(C)O)CCC43O)C2)OC(C)C1OC1CC(OC)C(OC2OC(C)C(O)C(OC)C2O)C(C)O1 [Compound 11, 12-O-cinnamoyl-(20S)-17-hydrosarcostin-3-O-β-D-6-deoxy-3-O-methyl-allopyranosyl-(1 → 4)-β-D-oleandropyranosyl-(1 → 4)-β-D-cymaropyranoside] | significant reduction | most cytotoxic | 47.3 | 51.8 | 47.3 | – | –
2 | – | COC1CC(OC2CCC3(C)C(CCC4(O)C3CC(OC(C)=O)C3(C)C(C(C)OC(=O)c5ccccc5)CCC43O)C2)OC(C)C1OC1CC(OC)C(OC2OC(C)C(O)C(OC)C2O)C(C)O1 [Compound 18, 12-O-acetyl-20-O-benzoyl-(20R)-5,6,17-trihydrosarcostin-3-O-β-D-6-deoxy-3-O-methyl-allopyranosyl-(1 → 4)-β-D-oleandropyranosyl-(1 → 4)-β-D-cymaropyranoside] | significant reduction | – | 66.2 | < 50 | 66.2 | – | –
3 | – | COC1CC(OC2C(C)OC(OC3CCC4(C)C(CCC5(O)C4CC(OC(=O)C=Cc4ccccc4)C4(C)C(C(C)O)CCC54O)C3)CC2OC(C)=O)OC(C)C1OC1OC(C)C(OC2OC(CO)C(OC3OC(CO)C(O)C(O)C3O)C(O)C2O)C(OC)C1O [Compound 7, 12-O-cinnamoyl-(20S)-5,6,17-trihydrosarcostin-3-O-β-D-glucopyranosyl-(1 → 4)-β-D-glucopyranosyl-(1 → 4)-β-D-6-deoxy-3-O-methyl-allopyranosyl-(1 → 4)-β-D-oleandropyranosyl-(1 → 4)-β-D-3′-O-acetyl-cymaropyranoside] | did not reduce | did not exhibit cytotoxicity at the concentrations tested | > 100 | < 50 | – | – | –
4 | – | COC1CC(OC2CCC3(C)C(CCC4(O)C3CC(OC(=O)C=Cc3ccccc3)C3(C)C(O)(C(C)OC(=O)c5ccccc5)CCC43O)C2)OC(C)C1OC1CC(OC)C(OC2OC(C)C(O)C(OC)C2O)C(C)O1 [Compound 4, 12-O-cinnamoyl-20-O-benzoyl-(20R)-5,6-dihydrosarcostin-3-O-β-D-6-deoxy-3-O-methyl-allopyranosyl-(1 → 4)-β-D-oleandropyranosyl-(1 → 4)-β-D-cymaropyranoside] | significant reduction | did not induce cytotoxic effects | > 100 | < 50 | – | reduced IL-1β production but not IL-6 | –
5 | – | COC1CC(OC2CCC3(C)C(CCC4(O)C3CC(OC(=O)C=Cc3ccccc3)C3(C)C(C(C)O)CCC43O)C2)OC(C)C1OC1CC(OC)C(OC2OC(C)C(O)C(OC)C2O)C(C)O1 [Compound 15, 12-O-cinnamoyl-(20S)-5,6,17-trihydrosarcostin-3-O-β-D-6-deoxy-3-O-methyl-allopyranosyl-(1 → 4)-β-D-oleandropyranosyl-(1 → 4)-β-D-cymaropyranoside] | significant reduction | most cytotoxic | 33.7 | 62.9 | 33.8 | – | –
6 | – | COC1CC(OC2CCC3(C)C(=CCC4(O)C3CC(OC(=O)C=Cc3ccccc3)C3(C)C(O)(C(C)OC(=O)c5cccnc5)CCC43O)C2)OC(C)C1OC1CC(OC)C(OC2OC(C)C(O)C(OC)C2O)C(C)O1 [Compound 1, 12-O-cinnamoyl-20-O-nicotinoyl-(20R)-sarcostin-3-O-β-D-6-deoxy-3-O-methyl-allopyranosyl-(1 → 4)-β-D-oleandropyranosyl-(1 → 4)-β-D-cymaropyranoside] | significant reduction; also recorded: comparable to those of Dexa | did not induce cytotoxic effects | 24.5 | > 70 | – | comparable to those of Dexa | –
7 | – | COC1CC(OC2C(C)OC(OC3CCC4(C)C(CCC5(O)C4CC(OC(=O)C=Cc4ccccc4)C4(C)C(C(C)O)CCC54O)C3)CC2OC(C)=O)OC(C)C1OC1OC(C)C(O)C(OC)C1O [Compound 13, 12-O-cinnamoyl-(20S)-5,6,17-trihydrosarcostin-3-O-β-D-6-deoxy-3-O-methyl-allopyranosyl-(1 → 4)-β-D-oleandropyranosyl-(1 → 4)-β-D-3′-O-acetyl-cymaropyranoside] | significant reduction | did not exhibit cytotoxicity at the concentrations tested | 42.4 | 59.3 | 42.4 | – | –
8 | – | COC1CC(OC2C(O)CC(OC3CCC4(C)C(CCC5(O)C4CC(OC(=O)C=Cc4ccccc4)C4(C)C(C(C)O)CCC54O)C3)OC2C)OC(C)C1OC1OC(C)C(O)C(OC)C1O [Compound 12, 12-O-cinnamoyl-(20S)-5,6,17-trihydrosarcostin-3-O-β-D-6-deoxy-3-O-methyl-allopyranosyl-(1 → 4)-β-D-oleandropyranosyl-(1 → 4)-β-D-digitoxopyranoside] | did not reduce | – | > 100 | 62 | – | – | –
9 | 4.8 | C[C@@H]1C[C@H]2[C@@H]3CCC4=CC(=O)C=C[C@]4(C)[C@@]3(F)[C@@H](O)C[C@]2(C)[C@@]1(O)C(=O)CO [Dexa, dexamethasone, reference compound] | – | – | – | – | – | – | 51.6
10 | – | COC1CC(OC2C(C)OC(OC3CCC4(C)C(CCC5(O)C4CC(OC(C)=O)C4(C)C(C(C)OC(=O)c6ccccc6)CCC54O)C3)CC2OC(C)=O)OC(C)C1OC1OC(C)C(O)C(OC)C1O [Compound 17, 12-O-acetyl-20-O-benzoyl-(20R)-5,6,17-trihydrosarcostin-3-O-β-D-6-deoxy-3-O-methyl-allopyranosyl-(1 → 4)-β-D-oleandropyranosyl-(1 → 4)-β-D-3′-O-acetyl-cymaropyranoside] | significant reduction | only mild cytotoxicity at the highest concentrations | 46.3 | < 50 | 46.3 | – | –
11 | – | COC1CC(OC2CCC3(C)C(CCC4(O)C3CC(OC(=O)C=Cc3ccccc3)C3(C)C(C(C)O)CCC43O)C2)OC(C)C1OC1CC(OC)C(OC2OC(C)C(OC3OC(CO)C(OC4OC(CO)C(O)C(O)C4O)C(O)C3O)C(OC)C2O)C(C)O1 [Compound 6, 12-O-cinnamoyl-(20S)-5,6,17-trihydrosarcostin-3-O-β-D-glucopyranosyl-(1 → 4)-β-D glucopyranosyl-(1 → 4)-β-D-6-deoxy-3-O-methyl-allopyranosyl-(1 → 4)-β-D oleandropyranosyl-(1 → 4)-β-D-cymaropyranoside] | did not reduce | did not induce cytotoxic effects | – | < 50 | – | – | –
